The NIST ThermoML archive (doi:10.1021/acs.jced.7b00964)
± gives the expanded uncertainty stated by the source.

Conditions: Liquid, Closed cell (Static) method

| Structure (SMILES) | vapor or sublimation pressure (243.15 K) | vapor or sublimation pressure (253.15 K) | vapor or sublimation pressure (263.15 K) | vapor or sublimation pressure (273.15 K) | vapor or sublimation pressure (283.15 K) |
| --- | --- | --- | --- | --- | --- |
| F/C=C/C(F)(F)F [trans-1,3,3,3-tetrafluoropropene] | 61 ± 1 kPa | 97 ± 1 kPa | 147.7 ± 1 kPa | 216.4 ± 1.1 kPa | 308.3 ± 1.1 kPa |
| CC(C)C [2-methylpropane] | 46.7 ± 1 kPa | 72.6 ± 1 kPa | 108.7 ± 1 kPa | 157.4 ± 1 kPa | 221 ± 1.1 kPa |
| FC(F)(F)I [trifluoroiodomethane] | 71.7 ± 1 kPa | 109 ± 1 kPa | 160.4 ± 1 kPa | 228.2 ± 1.1 kPa | 316.3 ± 1.1 kPa |
